From patent US9029328B2, “Methods for cardioprotection and cardioregeneration with dimers of EGF family ligands” (The Brigham and Women's Hospital, Inc., priority 2010, dated 2015)
Each block holds one compound with its values, some of them ahead of it.

Columns and labels:
[1] = FDA label; cited from earlier work
[2] = biological target: T1, soluble crosslinked HER3 homodimers (ErbB3) (Homo sapiens, UniProt P21860); assay: Aggregation of soluble ErbB3 by dynamic light scattering; format: binding; details: various ligand:ErbB3 ratios, n=10
T1 construct: exposed to soluble crosslinked HER3 homodimers (ErbB3)
T1 sequence (P21860 20-643 limits assumed): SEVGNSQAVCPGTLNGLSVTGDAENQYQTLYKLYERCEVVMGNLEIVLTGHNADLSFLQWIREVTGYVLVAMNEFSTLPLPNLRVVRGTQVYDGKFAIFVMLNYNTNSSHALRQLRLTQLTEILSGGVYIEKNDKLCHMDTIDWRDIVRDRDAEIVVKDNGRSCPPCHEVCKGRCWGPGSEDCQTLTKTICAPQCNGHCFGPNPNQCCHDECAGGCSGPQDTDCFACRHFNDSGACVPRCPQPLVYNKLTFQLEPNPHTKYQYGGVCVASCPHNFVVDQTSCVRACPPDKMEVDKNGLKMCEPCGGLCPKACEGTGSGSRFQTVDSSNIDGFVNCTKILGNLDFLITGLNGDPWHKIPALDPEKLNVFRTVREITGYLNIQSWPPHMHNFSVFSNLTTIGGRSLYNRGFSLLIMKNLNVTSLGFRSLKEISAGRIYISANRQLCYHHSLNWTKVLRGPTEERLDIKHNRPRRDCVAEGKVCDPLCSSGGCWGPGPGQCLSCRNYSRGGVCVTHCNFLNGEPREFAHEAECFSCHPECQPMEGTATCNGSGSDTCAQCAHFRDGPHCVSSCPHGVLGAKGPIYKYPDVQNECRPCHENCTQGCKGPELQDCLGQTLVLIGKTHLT
Procedure: FIG. 10. Specific binding of bivalent NN to HER3. Bivalent NN, monovalent NRG
(NC and NN), native NRG, or bivalent EN were exposed to soluble crosslinked HER3 homodimers (ErbB3) and hydrodynamic radius (RH) at various ligand:ErbB3 ratios. Receptor aggregation was determined by dynamic light scattering (n=10).

[3] = tested on: ErbB2 and ErbB3 receptors in H3255 cells; assay: Western blot of pHER2 and pHER3 in H3255 cell lysates; format: cell-based
Description: FIG. 9. Western blot analysis of pHER2 and pHER3 in lysates from H3255 cells stimulated by monovalent NRG (NC) or bivalent NRG (NN) (data representative of 2 independent experiments) (FIG. 9B). A possible mechanism for the observed differences in monovalent NRG compared to bivalent NN, in which NN fosters homodimerization or homo-oligomerization of HER3 at the expense of heterodimers with HER2, is illustrated in the schematic (FIG. 9A).
This hypothesis is further supported by the use of H3255 cells, which express high levels of the ErbB3 receptor and low levels of the ErbB4 receptor. Because the potential phenotypic effects associated with dimerization, oligomerization, and/or aggregation are more apparent with ErbB3 than ErbB4, this setting was chosen for proof-of-concept experiments.

[4] = biological target: ErbB1 (Homo sapiens, UniProt P00533); details: NRG binding to ErbB1, reference [18]; cited from earlier work
[5] = tested on: hTERT-immortalized human mesenchymal stem cells (hTMSC); assay: ERK phosphorylation in hTMSC, western analysis with densitometry; format: cell-based
Procedure: FIG. 4. Cellular responses differ between native and bivalent NRG. (A) hTMSC were exposed to native (rhNRG), monovalent (C3, C4) and bivalent (NN) NRG in culture. ERK phosphorylation was measured via western analysis and quantified by densitometry.
Since NRG has high affinity for ErbB3 as well as ErbB4, and since ErbB3 is kinase-deficient, recruitment of ErbB3 homodimers via bivalent NRG should produce a null signaling outcome, whereas native or monovalent engineered NRG should be capable of stimulating ERK phosphorylation in these cells via ErbB2/ErbB3 mediated signaling.

[6] = biological target: ErbB4 (Homo sapiens, UniProt Q15303); details: NRG binding to ErbB4, reference [18]; cited from earlier work
Chain of ErbB4 (Q15303 26-1308, species assumed): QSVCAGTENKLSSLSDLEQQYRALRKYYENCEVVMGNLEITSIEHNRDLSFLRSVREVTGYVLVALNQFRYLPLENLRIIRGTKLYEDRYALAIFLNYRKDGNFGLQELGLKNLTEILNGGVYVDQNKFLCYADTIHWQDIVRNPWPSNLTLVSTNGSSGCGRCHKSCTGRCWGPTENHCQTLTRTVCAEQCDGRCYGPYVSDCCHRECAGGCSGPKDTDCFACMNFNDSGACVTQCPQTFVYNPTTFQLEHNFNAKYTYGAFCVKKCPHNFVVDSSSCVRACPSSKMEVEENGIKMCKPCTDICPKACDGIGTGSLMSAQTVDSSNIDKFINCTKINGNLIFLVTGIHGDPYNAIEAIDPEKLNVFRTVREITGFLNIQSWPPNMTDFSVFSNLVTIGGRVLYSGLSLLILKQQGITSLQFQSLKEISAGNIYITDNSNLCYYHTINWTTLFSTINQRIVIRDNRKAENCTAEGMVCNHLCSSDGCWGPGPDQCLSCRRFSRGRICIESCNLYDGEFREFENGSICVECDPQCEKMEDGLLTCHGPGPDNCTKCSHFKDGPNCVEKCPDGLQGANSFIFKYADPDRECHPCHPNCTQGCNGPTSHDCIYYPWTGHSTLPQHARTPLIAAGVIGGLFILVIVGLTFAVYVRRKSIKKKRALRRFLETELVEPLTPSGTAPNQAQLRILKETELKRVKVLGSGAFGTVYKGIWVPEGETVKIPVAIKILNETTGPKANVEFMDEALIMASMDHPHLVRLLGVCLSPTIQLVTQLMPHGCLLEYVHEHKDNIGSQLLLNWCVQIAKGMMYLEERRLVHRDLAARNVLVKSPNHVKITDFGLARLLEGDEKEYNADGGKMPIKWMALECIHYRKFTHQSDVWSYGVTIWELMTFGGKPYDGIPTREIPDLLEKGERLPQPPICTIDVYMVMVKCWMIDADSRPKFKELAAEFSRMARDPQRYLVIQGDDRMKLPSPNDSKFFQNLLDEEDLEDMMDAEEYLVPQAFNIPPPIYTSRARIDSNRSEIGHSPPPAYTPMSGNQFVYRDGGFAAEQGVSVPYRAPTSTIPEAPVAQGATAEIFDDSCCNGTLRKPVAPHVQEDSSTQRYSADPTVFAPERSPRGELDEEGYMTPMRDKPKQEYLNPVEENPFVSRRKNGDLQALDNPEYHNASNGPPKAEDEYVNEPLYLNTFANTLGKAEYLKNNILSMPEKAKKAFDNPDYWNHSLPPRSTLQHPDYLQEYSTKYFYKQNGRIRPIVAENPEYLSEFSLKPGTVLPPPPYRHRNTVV

[7] = tested on: HER3 and HER4 receptors; assay: NRG relative affinity for HER3 and HER4 versus HER1; format: binding
Description: Accordingly, in the context of cardiomyocytes, receptor signaling bias can be achieved, for example, through use of a ligand with high affinity for HER4/ErbB4. One such ligand is neuregulin-1β (NRG or NRG1, as used herein). To this end, the invention provides an NRG ligand homodimer. This homodimer induces HER4 homodimerization due to the high affinity of NRG for HER4/ErbB4. NRG binds HER3 and HER4 receptors with approximately 5000-fold greater affinity than HER1. ErbB3 is not expressed on cardiomyocytes however so exposure of these cells to an NRG dimer will stimulate the dimerization of HER4 homodimers without interference from HER3 receptors.

[8] = tested on: Neonatal rat cardiomyocytes (NRCM); assay: Cardiomyocyte viability under doxorubicin, cell titer blue assay; format: cell-based; details: FIGS. 6 and 7; monomers compared with dimers
Procedure: FIG. 5. Bivalent NRG attenuates doxorubicin-induced toxicity to cardiomyocytes in vitro. (A) Neonatal rat cardiomyocytes (NRCM) were simultaneously exposed to doxorubicin (1 μM) and either fibroblast growth factor-1 (FGF1, a known NRCM mitogen), native NRG (NRG), or bivalent NRG (NRG-NRG) at the indicated doses. […] (B) Bivalent NRG may preferentially activate the PI3K/Akt pro-survival signaling pathway.
FIG. 6 is a bar graph showing the effect of NRG monomers and NRG homodimers on cardiomyocyte viability in the presence of doxorubicin.
FIG. 7 is a bar graph showing the effect of NRG monomers, NRG homodimers, EGF-NRG heterodimers, and EGF and NRG monomers on cardiomyocyte viability in the presence of doxorubicin.
The activity of engineered ErbB receptor ligands has been verified in multiple cell systems. ErbB receptor profiles in cardiomyocytes are distinct. The efficacy of engineered bivalent ligands has been tested on cardiomyocytes in culture. Specifically, the effects of native and bivalent NRG on cardiomyocytes exposed to DOX-induced cytotoxicity were examined. […] If this effect of bivalent NRG is validated in vivo, it could have significant potential as a new cardioprotective agent against DOX-induced cardiomyopathy.
FIGS. 6 and 7 show similar results.

[9] = tested on: MCF-7 cells; assay: ERK phosphorylation in MCF-7 cells (NRG containing ligands); format: cell-based; details: inhibitor control
Procedure: (§1) FIG. 3. Bioactivity of engineered ligands. Stimulation of ERK phosphorylation by engineered EGF (C1, C2) and NRG (C3, C4) compared to native protein. Inhibition of phosphorylation was accomplished via a pan-ErbB kinase inhibitor N-(4-((3-Chloro-4-fluorophenyl)amino)-pyrido[3,4-d]pyrimidin-6-yl)2-butynamide (i), indicating specificity; FIG. 3A (HeLa), FIG. 3B (MCF-7).
(§2) Proteins are produced using a maltose binding protein (MBP) tagged system (pMAL-c2X, New England Biolabs). Proteins are analyzed by Coomassie staining, immunoblotting, mass spectrometry, absorbance at 280 nm, and in vitro cell response versus wild type ligands EGF and NRG. Specificity for ErbB receptor activation was further assessed by including inhibitor controls using the pan-ErbB kinase inhibitor N-(4-((3-Chloro-4-fluorophenyl)amino)-pyrido[3,4-d]pyrimidin-6-yl)-2-butynamide. Bioactivity and ErbB specificity were validated in HeLa and MCF-7 cells (for EGF and NRG containing ligands, respectively) (FIG. 3). HeLa cells express EGFR and ErbB2 and are responsive to EGF while MCF-7 cells express ErbB3 and ErbB4 and are responsive to NRG.

[10] = tested on: HeLa cells; assay: ERK phosphorylation in HeLa cells (EGF containing ligands); format: cell-based; details: inhibitor control
Procedure: as §1, §2

[11] = tested on: infarcted hearts; details: nanofiber delivery, n=7, from reference [10]; cited from earlier work

Compound: COc1cccc2c1C(=O)c1c(O)c3c(c(O)c1C2=O)C[C@@](O)(C(=O)CO)C[C@@H]3O[C@H]1C[C@H](N)[C@H](O)[C@H](C)O1 [doxorubicin]
cumulative dose at which risk of developing impaired myocardial function increases [1]: about 300 mg/m^2

Compound: NC: Monovalent NRG used as comparator to bivalent NN
aggregation of soluble ErbB3 receptors (hydrodynamic radius) [2]: Only bivalent NN induced aggregation
phosphorylation of ErbB2 and ErbB3 receptors [3]: stimulates phosphorylation

greater affinity for HER3 and HER4 than HER1 [7]: approximately 5000 fold
Compound: neuregulin-1β [native NRG]
Kd [4]: ~5.55 µM
ERK phosphorylation (pERK response) [5]: dose-dependent increase in ERK phosphorylation
Kd [6]: ~0.0007 µM
aggregation of soluble ErbB3 receptors (hydrodynamic radius) [2]: Only bivalent NN induced aggregation
cardiomyocyte viability in the presence of doxorubicin [8]: significantly (p<0.05) decreased

Compound: CC#CC(=O)Nc1cc2c(Nc3ccc(F)c(Cl)c3)ncnc2cn1 [N-(4-((3-Chloro-4-fluorophenyl)amino)-pyrido[3,4-d]pyrimidin-6-yl)-2-butynamide]
inhibition of ligand-induced pERK activation [9]: specifically inhibited
inhibition of ligand-induced pERK activation [10]: specifically inhibited

Compound: SDF-1(S4V): Protease resistant form of SDF-1, delivered via self-assembling peptide nanofibers
capillary density (isolectin-positive staining) [11]: increased capillary density
